Literature values, collected in paper PMC4232468 (Nature chemical biology, 2014).

Q: Which “activation of mouse STING” value (mouse STING (mSTING)) does the source give for `Cc1ccc2c(=O)c3cccc(CC(=O)O)c3oc2c1C` [DMXAA, 5,6-dimethylxanthenone-4-acetic acid] here?
A: activates mouse STING (mSTING)

Q: And the “activation of human STING” value (human STING (hSTING))?
A: not human STING (hSTING)
